Laboratory results taken from ChEMBL document CHEMBL1201862, “PubChem BioAssay data set” (2004).
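Compound exposure: 48 hours, 5 concentrations, 96-well plates. GI50 = concentration required for 50% inhibition of growth.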 Activity calls are given as the source filed them. No stated cut-off is given here; in the data, active = GI50 up to about 1.1 µM and inactive = higher.

How the values were obtained:
Assay in all cases: NCI anticancer screen, dose series, 48 h
TK-10 = test system: TK-10
DU-145 = test system: DU-145
HCC 2998 = test system: HCC 2998
K562 = test system: K562
RPMI-8226 = test system: RPMI-8226
MDA-N = test system: MDA-N
SW-620 = test system: SW-620
ACHN = test system: ACHN
NCI/ADR-RES = test system: NCI/ADR-RES
HT-29 = test system: HT-29
U-251 = test system: U-251
T47D = test system: T47D
A549 = test system: A549
SK-MEL-2 = test system: SK-MEL-2
COLO 205 = test system: COLO 205
UACC-62 = test system: UACC-62
IGROV-1 = test system: IGROV-1
OVCAR-5 = test system: OVCAR-5
RXF 393 = test system: RXF 393

Row | Compound | GI50 (TK-10) | GI50 (DU-145) | GI50 (HCC 2998) | GI50 (K562) | GI50 (RPMI-8226) | GI50 (MDA-N) | GI50 (SW-620) | GI50 (ACHN) | GI50 (NCI/ADR-RES) | GI50 (HT-29) | GI50 (U-251) | GI50 (T47D) | GI50 (A549) | GI50 (SK-MEL-2) | GI50 (COLO 205) | GI50 (UACC-62) | GI50 (IGROV-1) | GI50 (OVCAR-5) | GI50 (RXF 393)
1 | Cn1c2c(c3ccccc31)CC(=S)N1CCCC(CC2O)C1 (stereo unspecified) | > 100 µM (inactive) | > 100 µM (inactive) | > 100 µM (inactive) | > 100 µM (inactive) | > 100 µM (inactive) | > 100 µM (inactive) | > 100 µM (inactive) | > 100 µM (inactive) | > 100 µM (inactive) | > 100 µM (inactive) | > 100 µM (inactive) | > 100 µM (inactive) | > 100 µM (inactive) | > 100 µM (inactive) | > 100 µM (inactive) | 91.2 µM (inactive) | – | – | –
2 | O=C(O)c1cc(=O)c2cc(C(=O)c3cccs3)c(Cl)c(Cl)c2o1 | > 100 µM (inactive) | – | > 100 µM (inactive) | > 100 µM (inactive) | > 100 µM (inactive) | – | > 100 µM (inactive) | > 100 µM (inactive) | – | > 100 µM (inactive) | > 100 µM (inactive) | – | > 100 µM (inactive) | > 100 µM (inactive) | – | > 100 µM (inactive) | > 100 µM (inactive) | > 100 µM (inactive) | –
3 | COc1cc(C2c3cc4c(cc3OC(O)C2C)OCO4)cc(OC)c1OC (stereo unspecified) | 34.9 µM (inactive) | 0.414 µM (active) | 0.61 µM (active) | 0.142 µM (active) | 0.264 µM (active) | 0.0887 µM (active) | 0.292 µM (active) | 0.792 µM (active) | 0.214 µM (active) | 0.346 µM (active) | 0.33 µM (active) | – | 0.381 µM (active) | 0.486 µM (active) | 0.315 µM (active) | 0.349 µM (active) | 0.553 µM (active) | 4.78 µM (inactive) | 0.244 µM (active)
4 | CC(C)CC(N)C(=O)OCN1C(=O)C2C3C=CC(C2C1=O)C1C2C(=O)N(COC(=O)C(N)CC(C)C)C(=O)C2C31 (stereo unspecified) | > 100 µM (inactive) | – | > 100 µM (inactive) | > 100 µM (inactive) | > 48.2 µM (inactive) | – | > 53.6 µM (inactive) | > 100 µM (inactive) | – | > 100 µM (inactive) | > 100 µM (inactive) | – | > 100 µM (inactive) | > 100 µM (inactive) | > 92.3 µM (inactive) | > 100 µM (inactive) | > 100 µM (inactive) | > 100 µM (inactive) | > 100 µM (inactive)
5 | Cc1sc2nc3n(c(=O)c2c1C)N=CN(c1ccc(Cl)cc1)C3 | > 100 µM (inactive) | > 100 µM (inactive) | > 100 µM (inactive) | > 100 µM (inactive) | > 100 µM (inactive) | > 100 µM (inactive) | > 100 µM (inactive) | > 100 µM (inactive) | > 100 µM (inactive) | > 100 µM (inactive) | > 100 µM (inactive) | – | > 100 µM (inactive) | > 100 µM (inactive) | > 100 µM (inactive) | > 100 µM (inactive) | > 100 µM (inactive) | > 100 µM (inactive) | > 100 µM (inactive)
6 | CCOc1ccc(Nc2nc(N)nc(N)c2N)cc1 | > 100 µM (inactive) | > 100 µM (inactive) | – | 13.6 µM (inactive) | 12.1 µM (inactive) | 3.79 µM (inactive) | 33.1 µM (inactive) | 38.7 µM (inactive) | 37 µM (inactive) | 17.8 µM (inactive) | 24.1 µM (inactive) | 21.4 µM (inactive) | 45.2 µM (inactive) | 44.9 µM (inactive) | 27.9 µM (inactive) | 32.7 µM (inactive) | 11.6 µM (inactive) | 29.6 µM (inactive) | –
7 | Nc1ccc2c(c1)N(C(=O)CCCC(=O)N1CC(CCl)c3ccc(N)cc31)CC2CCl (stereo unspecified) | 1.53 µM (inactive) | 0.121 µM (active) | 1.45 µM (inactive) | 0.873 µM (active) | 0.26 µM (active) | 1.06 µM (active) | 0.977 µM (active) | 0.112 µM (active) | 1.15 µM (inactive) | 0.946 µM (active) | 0.513 µM (active) | – | 0.472 µM (active) | 0.587 µM (active) | 0.735 µM (active) | 0.354 µM (active) | 0.411 µM (active) | 0.875 µM (active) | 0.195 µM (active)
8 | Oc1cn(-c2ccc(Cl)cc2)nc1-c1nnc(Nc2ccccc2)o1 | 18.5 µM (inactive) | 15.4 µM (inactive) | – | – | – | – | 19.1 µM (inactive) | 25.6 µM (inactive) | 14.9 µM (inactive) | 9.55 µM (inactive) | 17.5 µM (inactive) | 23 µM (inactive) | 20.4 µM (inactive) | 20.2 µM (inactive) | 21.4 µM (inactive) | 16.6 µM (inactive) | 15.2 µM (inactive) | 88.7 µM (inactive) | 16 µM (inactive)
9 | O=C(O)c1cc(/C=C/c2cc(O)ccc2O)ccc1O | > 10 µM (inactive) | > 10 µM (inactive) | > 10 µM (inactive) | 2.85 µM (inactive) | – | 3.43 µM (inactive) | > 10 µM (inactive) | > 10 µM (inactive) | > 10 µM (inactive) | > 10 µM (inactive) | > 10 µM (inactive) | – | > 10 µM (inactive) | > 10 µM (inactive) | – | > 10 µM (inactive) | – | > 10 µM (inactive) | –
10 | C/C=C1\CNC1C(=O)O (stereo unspecified) | > 100 µM (inactive) | – | > 100 µM (inactive) | > 100 µM (inactive) | > 100 µM (inactive) | > 100 µM (inactive) | > 100 µM (inactive) | > 100 µM (inactive) | > 100 µM (inactive) | > 100 µM (inactive) | – | – | > 100 µM (inactive) | > 100 µM (inactive) | > 100 µM (inactive) | > 100 µM (inactive) | > 100 µM (inactive) | > 100 µM (inactive) | –
11 | COc1ccc(-c2nc(-c3cnccn3)n(C/C=C/c3ccccc3)n2)cc1 | – | > 100 µM (inactive) | > 100 µM (inactive) | > 100 µM (inactive) | > 100 µM (inactive) | > 100 µM (inactive) | > 100 µM (inactive) | – | 83.4 µM (inactive) | > 100 µM (inactive) | 46.7 µM (inactive) | 48.2 µM (inactive) | 51.6 µM (inactive) | – | > 100 µM (inactive) | 35.2 µM (inactive) | 48.1 µM (inactive) | > 100 µM (inactive) | –
12 | O=C1CN2C(c3ccccc3)=NN(c3ccc([N+](=O)[O-])cc3)C2(c2ccccc2)c2cc(Cl)ccc2N1CC1CC1 (stereo unspecified) | > 100 µM (inactive) | > 100 µM (inactive) | > 100 µM (inactive) | > 100 µM (inactive) | 29 µM (inactive) | – | > 100 µM (inactive) | > 100 µM (inactive) | > 100 µM (inactive) | > 100 µM (inactive) | > 100 µM (inactive) | – | > 100 µM (inactive) | – | > 100 µM (inactive) | > 100 µM (inactive) | > 100 µM (inactive) | > 100 µM (inactive) | > 100 µM (inactive)
13 | O=C1Nc2c(Cl)cc(Cl)cc2/C1=N/N=C/c1ccco1 | 48.5 µM (inactive) | – | 37.3 µM (inactive) | 31.4 µM (inactive) | – | 18.9 µM (inactive) | 37 µM (inactive) | 34.1 µM (inactive) | 21.4 µM (inactive) | 28.8 µM (inactive) | 27.7 µM (inactive) | – | 33.4 µM (inactive) | 24.4 µM (inactive) | 22.4 µM (inactive) | 21.5 µM (inactive) | 27.5 µM (inactive) | 61 µM (inactive) | 32.1 µM (inactive)
14 | COC1(c2ccc(Cl)cc2)SC=C(C)n2c1noc2=O (stereo unspecified) | – | > 100 µM (inactive) | > 100 µM (inactive) | > 100 µM (inactive) | > 100 µM (inactive) | > 100 µM (inactive) | > 100 µM (inactive) | > 100 µM (inactive) | 10.5 µM (inactive) | 33.8 µM (inactive) | > 100 µM (inactive) | – | > 100 µM (inactive) | – | > 100 µM (inactive) | > 100 µM (inactive) | > 100 µM (inactive) | > 100 µM (inactive) | > 100 µM (inactive)
15 | O=C1CC(C(CC(=O)c2ccccc2)c2ccccc2)C(=O)c2ccccc2N1 (stereo unspecified) | – | 48.6 µM (inactive) | 48.6 µM (inactive) | 33.1 µM (inactive) | 22.1 µM (inactive) | 49.3 µM (inactive) | 68.7 µM (inactive) | 45.3 µM (inactive) | 15.1 µM (inactive) | 32.3 µM (inactive) | 84.7 µM (inactive) | 20.7 µM (inactive) | 38.2 µM (inactive) | 16 µM (inactive) | 54.8 µM (inactive) | 31.6 µM (inactive) | > 100 µM (inactive) | 56 µM (inactive) | –
16 | COC(=O)C1C(O)CCC2CN3CCc4c([nH]c5cccc(OC)c45)C3CC21 (stereo unspecified) | > 100 µM (inactive) | > 100 µM (inactive) | > 100 µM (inactive) | > 100 µM (inactive) | > 100 µM (inactive) | > 100 µM (inactive) | > 100 µM (inactive) | > 100 µM (inactive) | – | > 100 µM (inactive) | > 100 µM (inactive) | > 100 µM (inactive) | > 100 µM (inactive) | > 100 µM (inactive) | > 100 µM (inactive) | > 100 µM (inactive) | > 100 µM (inactive) | > 100 µM (inactive) | 59.2 µM (inactive)
17 | C=C1C(=O)OC2/C=C(\C)C3OC3/C=C(/C(=O)OC)C(O)C(OC(=O)C3(C)OC3C)C12 (stereo unspecified) | 2.74 µM (inactive) | – | 1.9 µM (inactive) | 0.685 µM (active) | – | – | 0.959 µM (active) | 3.14 µM (inactive) | – | 1.65 µM (inactive) | 4.58 µM (inactive) | – | 15.3 µM (inactive) | 2.48 µM (inactive) | 1.27 µM (inactive) | 1.01 µM (active) | 2.3 µM (inactive) | 16.7 µM (inactive) | 1.02 µM (active)
